Data taken from US7288558B2, “Pharmaceutical composition for treatment for urinary diseases comprising LPA receptor regulator” (Ono Pharmaceuticals Co., Ltd., priority 2001, dated 2007).

Key:
[1] = tested on: micturition; assay: Cystometry in anesthetized female rats with intravenous infusion of LPA; assay type: in vivo, rat; conditions: infusion rate 15 mg/kg/hr/3 mL i.v.
Text: Female CD(Sprague-Dawley)IGS rats (Charles River Japan Inc., 12 to 13 weeks old in use) were anesthetized with an s.c. administration of urethane (1.2 g/kg) and placed in a supine position and the bladder and proximal urethra were exposed through a midline abdominal incision. The ureters were tied with silk suture distally and cut. Bladder was exposed and a polyethylene catheter (JMS cutdown tube, C3) was inserted through the bladder dome and secured with a ligature. The other side of the catheter was connected to a pressure transducer through two T tubes to measure intravesical pressure. Another side of T tubes was connected to an infusion pump for performing cystometrograms (the other side of T tube was connected to a syringe). The carotid artery was cannulated to measure blood pressure and the jugular vein was cannulated to administration of the test compounds. Rats in which the above mentioned operation was performed were placed to 37° C. thermostat plate and citric acid solution (pH4.0) or saline were infused into bladder at the rate of 2.85 mL/hr. After cystometrograms show rhythmic reflex saline was infused via jugular vein at the infusion rate of 3 mL/kg/hr. After an appropriate time 18:3-LPA prepared with 5 mg/mL was infused at the infusion rate of 3 mL/kg/hr. After the 18:3-LPA infusion was stopped saline was infused again. […]

[2] = tested on: colon and ileum; conditions: rats, literature; cited from earlier work
[3] = tested on: isolated urethral preparations; assay: Measurement of urethra contraction, isolated female rat urethral preparations (Magnus tube); assay type: cell-based
Text: After sacrificing female CD(SD)IGS rats (Charles River Japan Inc., 8-9 week-old in use) by blowing heads and exsanguinating from jugular vein, urethra under pubis was isolated carefully and soaked in Krebs-Henseleit solution (112 mmol/L NaCl, 5.9 mmol/L KCl, 2.0 mmol/L CaCl2, 1.2 mmol/L MgCl2, 1.2 mmol/L NaH2PO4, 25.0 mmol/L NaHCO3, 11.5 mmol/L glucose) immediately. Urethra part was cut from isolated sample, and was dissected in flat and subsequently was cut parallel to circular muscle. Thus, 2-3 strips of sample that are 3-4 mm long by 2-3 mm wide were made.
(§1) The made samples were suspended in the Magnus tube (volume: 10 mL) filled by Krebs-Henseleit solution (vented by 37±1° C., mixed gas [95% O2+5% CO2]). The samples were added about 0.5 g tension and stabilized for 60 min, and subsequently the contractile activity was recorded on recorder (linearcoder WR3320: GRAPHTEC CORP., thermal pen-writing recorder RJG-4128: Nihon Kohden Ltd) via a pressure amplifier (AP-641G, AP-601G, Nihon Kohden Ltd) from isometric transducer (Force displacement transducer) (FD pick-up TB-611T: Nihon Kohden Ltd).
The contractile reaction of control was given by stimulation of high concentration KCl solution (solution replaced all NaCl with KCl). By the addition of LPA and phenylephrine (comparison compound: α agonist) cumulatively, dose-dependency of urethra contraction was measured. […]

[4] = tested on: urethra; assay: Measurement of urethral pressure by drugs in pithed male rats, i.v.; assay type: in vivo, rat; design: key to urethral pressure: ↑: increase; (—): no effect; conditions: for urethral pressure (increase) / urethral pressure: male pithed rats; for urethral pressure: class symbol; for intraurethral pressure: 1 mg/kg i.v.
Description: Male CD(SD)IGS rats (Charles River Japan Inc., 8-9 week-old in use) were anesthetized by intraperitoneal administration of sodium pentbarbital (50 mg/kg). After incision of cervical median, broncho cannula and arterial catheter were inserted. The measurement of blood pressure was started via arterial catheter and subsequently a stainless-steel rod was inserted into the spinal column through the orbit and foramen magnum for the destruction of the spinal cord. The broncho cannula was connected to the artificial breathing device for small animals (SN-480-7, Shinano, Tokyo, Japan) immediately and the animals were ventilated artificially with room air in a tidal volume of 6 mL/kg body weight at a rate of 70 breaths/min. After confirming the gentle decrease of blood pressure and stabilization of the blood pressure at the low level indicating a success of destruction of the spinal cord, intravenous catheter was inserted into femoral vein for drug administration. Urinary bladder was exposed by incision of hypogastrium median and urethra was tied off in the vicinity of pubic bone. Urethra catheter was inserted into urethra through dome of urinary bladder and fixed by ligation at the bladder neck. Urethra catheter was connected to the pressure transducer and urethral pressure was measured. Subsequently, urethral pressure was adjusted about 20 mmHg and left for about 1 hour. After it was confirmed stability of urethral pressure, and subsequently 10 μg/kg/0.5 ml phenylephrine was administrated and it was confirmed that urethral pressure increased. Various drugs included 18:3-LPA were estimated 0.5 ml/kg in the same way.

[5] = tested on: isolated prostatic preparations; assay: Contractile test of isolated prostate, male rats (Magnus tube); assay type: cell-based; conditions: isolated male rat prostate
Text: After sacrificing male CD(SD)IGS rats (Charles River Japan Inc., 8-9 week-old in use) by blowing heads and exsanguinating from jugular vein, prostate was isolated and soaked in iced Krebs-Henseleit solution (112 mmol/L NaCl, 5.9 mmol/L KCl, 2.0 mmol/L CaCl2, 1.2 mmol/L MgCl2, 1.2 mmol/L NaH2PO4, 25.0 mmol/L NaHCO3, 11.5 mmol/L glucose) immediately. Prostate was separated right-and-left part from isolated sample, fatty tissue was removed and longitudinal strips (2 to 3 strips) were isolated from a prostate lobe.
as §1, with “were” for “were added about 0.5 g tension and”, “min and added about 0.5-1 g tension,” for “min,”, “AP-601G:” for “AP-601G,”, “Ltd). 0.01-10 μM phenylephrine was added in Magnus tube. The contraction by 10 μM phenylephrine is the contractile reaction of control. […] After the samples were suspended, it was washed over and over, opportunity. […]” for “Ltd).”

[6] = tested on: LPA dependent contraction in rat isolated urethra; assay: Inhibitory activity for LPA dependent contraction in rat isolated urethra; assay type: cell-based; conditions: isolated male rat urethra, 10 μM LPA
Text: Male CD(SD)IGS rats (Charles River Japan Inc., 8-9 week-old in use) anesthetized by diethyl ether were sacrificed by taking blood from the descending aorta, and subsequently urethra under pubis was isolated with urinary bladder and vesicular gland carefully and soaked in Krebs-Henseleit solution (112 mmol/L NaCl, 5.9 mmol/L KCl, 2.0 mmol/L CaCl2, 1.2 mmol/L MgCl2, 1.2 mmol/L NaH2PO4, 25.0 mmol/L NaHCO3, 11.5 mmol/L glucose) immediately. Urethra was cut from extracted sample and was dissected on the side of abdominal in flat with scissors for ophthalmic surgery. Thus, the strip of sample that are 3-4 mm long by 2-3 mm wide was made. […] The samples were added about 0.5 g tension and stabilized for 60 min, and subsequently the contractile activity was recorded on recorder (linearcoder WR3320: GRAPHTEC CORP., thermal pen-writing recorder RJG-4128: Nihon Kohden Ltd) via a pressure amplifier (AP-641G, AP-601G, Nihon Kohden Ltd) from Force displacement transducer (FD pick-up TB-611T: Nihon Kohden Ltd). […]
In other words, the isolated urethra was stimulated repeatedly by 10 μM LPA until a constant response was attained. […] Then the urethral contraction was monitored (post value). The inhibitory activity of compound A was calculated as the inhibition (%)={1-(post value)/(pre value)}×100. […]

[7] = target: EDG-2 (Homo sapiens, UniProt Q92633); conditions: EDG-2 over-expressed cell, specification of WO01/60819; cited from earlier work
[8] = tested on: urethra; assay: Rat urethral pressure in vivo after intravenous compound A; conditions: male rats, 3 mg/kg i.v.
Text: Male CD(SD)IGS rats (Charles River Japan Inc., 8-9 week-old in use) were anesthetized by subcutaneous administration of 1.2 g/kg urethane. After incision of cervical median, jugular vein catheter for administration of compound and arterial catheter for measurement of blood pressure were inserted. Subsequently, an incision in the hypogastrium median was made and urethra was tied off in the vicinity of pubic bone. Urethral catheter was inserted into urethra by cutting open dome of urinary bladder and fixed by ligation in of the bladder neck. Another end of urethral catheter was connected to the pressure transducer and urethral pressure was measured. Urethral pressure was adjusted about 20 mmHg and left at rest until it was stabilized (for about 20 minutes). Subsequently, compound A was administrated intravenously and blood pressure and urethral pressure were measured for 20 minutes, and then in order to monitor the base-line value of the intraurethral pressure 1 mL of pentobarbital was intraveniously injected. After the intraurethral pressure was decreased to the prolonged plateau, it was estimated as a base-line value. Compound A was administrated intraveniously (3 mg/kg, 1 mL/kg). Vehicle was confirmed as 10% DMSO-90% rat plasma solution. […]

EDG-2, sequence (Q92633 whole entry): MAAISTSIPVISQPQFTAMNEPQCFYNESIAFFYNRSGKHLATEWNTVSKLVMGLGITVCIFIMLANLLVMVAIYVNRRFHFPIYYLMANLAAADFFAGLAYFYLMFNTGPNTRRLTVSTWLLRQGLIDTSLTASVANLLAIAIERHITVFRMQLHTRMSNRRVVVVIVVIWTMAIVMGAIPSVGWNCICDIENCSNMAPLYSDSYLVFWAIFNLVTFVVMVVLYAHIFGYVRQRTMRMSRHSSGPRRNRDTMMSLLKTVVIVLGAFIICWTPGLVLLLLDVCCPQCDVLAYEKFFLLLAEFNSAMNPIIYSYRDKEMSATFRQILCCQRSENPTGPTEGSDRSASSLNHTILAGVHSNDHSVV

Structure (SMILES): CC/C=C\C/C=C\C/C=C\CCCCCCCC(=O)OC[C@@H](O)COP(=O)(O)O [18:3-LPA, 1-Linolenoyl lysophosphatidic acid]
- micturition pressure versus infusion of saline [1]: increased
- intercontraction interval versus saline infusion ([1]; FIG. 6): shorter
- activity for the contraction of colon and ileum [2]: most potent activity
- desensitization of urethral contraction [3]: desensitization was not caused
- intensity of contraction of urethra compared with phenylephrine ([3]; cumulative addition, FIG. 1): more potent
- urethral pressure (increase) ([4]; dose 10 μg/kg i.v.): 3.0 mmHg
- urethral pressure (increase) ([4]; dose 100 μg/kg i.v.): 9.0 mmHg
- urethral pressure (increase) ([4]; dose 1 mg/kg i.v.): 15.5 mmHg
- intraurethral pressure, dose dependency ([4]; pithed rat, intravenous injection, in words): increased the intraurethral pressure in a dose-dependent manner
- desensitization of prostate contraction [5]: desensitization was caused
- contraction of isolated prostate ([5]; organ bath in vitro, FIG. 2): contracts isolated urethra and prostate

Structure (SMILES): CCCCCCCCCCCCCCCC(=O)OCC(O)COP(=O)(O)O (centres unmarked) [(16:0)-LPA, 1-palmitoyl lysophosphatidic acid]
- activity for the contraction of colon and ileum [2]: also have the activity

Structure (SMILES): CCCCC/C=C\C/C=C\CCCCCCCC(=O)OC[C@@H](O)COP(=O)(O)O [(18:2)-LPA, 1-linoleoyl lysophosphatidic acid]
- activity for the contraction of colon and ileum [2]: also have the activity

Structure (SMILES): CC/C=C\C/C=C\C/C=C\CCCCCCCC(=O)OC[C@@H](O)COP(=O)([O-])OCC[N+](C)(C)C [LPC (18:3), 1-linolenoyl (18:3)-LPC (lysophosphatidyl choline)]
- urethral pressure ([4]; dose 1 mg/kg i.v.): —
- intraurethral pressure ([4]; pithed rat, in words): hardly increase

Structure (SMILES): CC/C=C\C/C=C\C/C=C\CCCCCCCC(=O)OCC(O)CO (centres unmarked) [1-monolinolenoyl (18:3)-glycerol]
- urethral pressure ([4]; dose 1 mg/kg i.v.): —
- intraurethral pressure ([4]; pithed rat, in words): hardly increase

Structure (SMILES): CNC[C@H](O)c1cccc(O)c1 [L-phenylephrine]
- urethral pressure (increase) ([4]; dose 10 μg/kg i.v.): 7.5 mmHg

Structure (SMILES): COC(=O)CCSCc1ccc(-c2onc(C)c2NC(=O)OC(C)c2ccccc2Cl)cc1 (centres unmarked) [compound A, methyl 3-({4-[4-({[1-(2-chlorophenyl)ethoxy]carbonyl}amino)-3-methyl-5-isoxazolyl]benzyl}sulfanyl)propanoate]
- IC50 ([6]; 0.5 h, 30 min incubation at 37° C., read-out: 50% inhibitory concentration (IC50) for urethral contraction by LPA): 70 nM
- inhibition of urethral contraction by LPA ([6]; in words): inhibited the urethral contraction by LPA, dose-dependently
- LPA receptor (EDG-2) antagonistic activity [7]: potent EDG-2 antagonistic activity
- maximal amounts of the decreasing intraurethral pressure, of an absolute value (pressure before injection minus base-line value) [8]: about 50%
- intraurethral pressure ([8]; urethane anesthesia, versus vehicle, FIG. 5): greatly decreased
